Experimental data from patent US20230146455A1, “TREATMENT OF INFLAMMATORY DISEASES WITH PEPTIDES AND PHARMACEUTICAL COMPOSITIONS” (Yuyu Pharma, Inc., priority 2020, published 2023).
“And” between values parts separate entries of the source, which are not always exact repeats. Equal entries are not always repeated. Where a SMILES comes first, the peptide text is derived from it. [ ]: non-standard residue; d: D form. Hyp = O=C(O)[C@@H]1C[C@@H](O)CN1

Test system: IL-4
Experiment: Example 9 Luminex, LPS hPBMCs: IL-4
Type: cell-based, human
Experimental: Treatment Human PBMCs were pretreated with YY-101, YDE-011 and YDE-043 or reference compound; Xiidra® at various concentration (ranging from 1 nM to 100 uM) for 2 h before stimulation. An equal volume of 0.5% DMSO was used as a vehicle control. Then, the cells were treated with LPS at 5 ug/ml. The supernatants from treated cells were harvested at 24 h and placed in a 96 well for Luminex cytokine & chemokine profiling using a Luminex 200 multiplex assay (Luminex; R&D system, USA).
The main study arm with triplicate wells per group in a 24-well plate: • 1. Blank • 2. PBMC: 0.5% DMSO • 3. PBMC+LPS (5 ug/ml) • 4. PBMC+YY-101 100 uM • 5. PBMC+YY-101 10 uM • 6. PBMC+YY-101 1 uM • 7. PBMC+YY-101 0.1 uM • 8. PBMC+YY-101 0.01 uM • 9. PBMC+LPS (5 ug/ml)+Xiidra®100 uM • 10. PBMC+LPS (5 ug/ml)+Xiidra® 10 uM • 11. PBMC+LPS (5 ug/ml)+Xiidra® 1 uM • 12. PBMC+LPS (5 ug/ml)+Xiidra®0.1 uM • 13. PBMC+LPS (5 ug/ml)+Xiidra®0.01 uM • 14. PBMC+LPS (5 ug/ml)+Xiidra®0.001 uM • 15. PBMC+LPS (5 ug/ml)+YY-101 100 uM • 16. PBMC+LPS (5 ug/ml)+YY-101 10 uM • 17. PBMC+LPS (5 ug/ml)+YY-101 1 uM • 18. PBMC+LPS (5 ug/ml)+YY-101 0.1 uM • 19. PBMC+LPS (5 ug/ml)+YY-101 0.01 uM • 20. PBMC+LPS (5 ug/ml)+YY-101 0.001 uM • 21. PBMC+LPS (5 ug/ml)+YDE-011 100 uM • 22. PBMC+LPS (5 ug/ml)+YDE-011 10 uM • 23. PBMC+LPS (5 ug/ml)+YDE-011 1 uM • 24. PBMC+LPS (5 ug/ml)+YDE-011 0.1 uM • 25. PBMC+LPS (5 ug/ml)+YDE-011 0.01 uM • 26. PBMC+LPS (5 ug/ml)+YDE-011 0.001 uM • 27. PBMC+LPS (5 ug/ml)+YDE-043 100 uM • 28. PBMC+LPS (5 ug/ml)+YDE-043 10 uM • 29. PBMC+LPS (5 ug/ml)+YDE-043 1 uM • 30. PBMC+LPS (5 ug/ml)+YDE-043 0.1 uM • 31. PBMC+LPS (5 ug/ml)+YDE-043 0.01 uM • 32. PBMC+LPS (5 ug/ml)+YDE-043 0.001 uM
Multiplex assay was used to measure 30 cytokines and chemokines. The 1:2, 1:10 and 1:200 diluted cell supernatant and serial dilution of the standard were dispensed into a 96 well plate at 50 ul/well. Then, the pre-mixed cocktail of antibody-coated magnetic beads was dispensed at 50 ul/well and incubated at room temperature for 2 h in a horizontal orbital microplate shaker at 800±500 rpm. The beads were washed using a magnetic device to prevent loss. The biotin-antibody was dispensed in 50 ul of each well and incubated at room temperature for 1 h in a shaker at 800±500 rpm. After washing, streptavidin-PE was added at 50 ul/well and incubated at room temperature for 30 min in a shaker under the same conditions. Finally, after washing, wash buffer (100 ul/well) was added to the plate and incubated in a shaker for 2 min. The Luminex™ 200 setting were set according to the manufacturer's protocol. The data was calculated with a standard five-parameter logistic nonlinear regression analysis of the data (xPonent software 4.2, USA). The levels of cytokine/chemokine are normalized to the live cell counts (1×10^5 cells/mL) and presented as concentrations per mL (pg/mL or ng/mL).

[1] = PBMC + LPS(5 ug/ml) + test article 0.001 uM, Mean
[2] = PBMC + LPS(5 ug/ml) + test article 0.001 uM, single replicates
[3] = PBMC + LPS(5 ug/ml) + test article 0.01 uM, Mean
[4] = PBMC + LPS(5 ug/ml) + test article 0.01 uM, single replicates
[5] = PBMC + LPS(5 ug/ml) + test article 0.1 uM, Mean
[6] = PBMC + LPS(5 ug/ml) + test article 0.1 uM, single replicates
[7] = PBMC + LPS(5 ug/ml) + test article 1 uM, Mean
[8] = PBMC + LPS(5 ug/ml) + test article 1 uM, single replicates
[9] = PBMC + LPS(5 ug/ml) + test article 10 uM, Mean
[10] = PBMC + LPS(5 ug/ml) + test article 10 uM, single replicates
[11] = PBMC + LPS(5 ug/ml) + test article 100 uM, Mean
[12] = PBMC + LPS(5 ug/ml) + test article 100 uM, single replicates
[13] = PBMC + test article 0.01 uM, no LPS, Mean
[14] = PBMC + test article 0.01 uM, no LPS, single replicates
[15] = PBMC + test article 0.1 uM, no LPS, Mean
[16] = PBMC + test article 0.1 uM, no LPS, single replicates
[17] = PBMC + test article 1 uM, no LPS, Mean
[18] = PBMC + test article 1 uM, no LPS, single replicates
[19] = PBMC + test article 10 uM, no LPS, Mean
[20] = PBMC + test article 10 uM, no LPS, single replicates
[21] = PBMC + test article 100 uM, no LPS, Mean
[22] = PBMC + test article 100 uM, no LPS, single replicates

## CC(C)C[C@H](NC(=O)CNC(=O)[C@H](CC(=O)O)NC(=O)[C@H](CCC(N)=O)NC(=O)CNC(=O)[C@@H]1C[C@@H](O)CN1)C(=O)N[C@@H](C)C(=O)NCC(=O)N1CCC[C@H]1C(=O)N[C@@H](CCCCN)C(=O)O [YY-101] (H-[Hyp]GQDGLAGPK-OH; N-terminus and C-terminus assumed)
[1]
  Concentration, Bead name: IL-4: 26.0 pg/mL
  MFI, Bead name: IL-4: 1.0
  conc/live cell, Bead name: IL-4: 4.0 pg/10^5
[2]
  Concentration, Bead name: IL-4: 18.4 pg/mL and 33.2 pg/mL and 26.4 pg/mL
  MFI, Bead name: IL-4: 0.0 and 2.0 and 1.0
  conc/live cell, Bead name: IL-4: 3.2 pg/10^5 and 4.7 pg/10^5 and 4.0 pg/10^5
[3]
  Concentration, Bead name: IL-4: 33.2 pg/mL
  MFI, Bead name: IL-4: 2.0
  conc/live cell, Bead name: IL-4: 5.4 pg/10^5
[4]
  Concentration, Bead name: IL-4: 33.2 pg/mL
  MFI, Bead name: IL-4: 2.0
  conc/live cell, Bead name: IL-4: 5.2 pg/10^5 and 5.5 pg/10^5 and 5.4 pg/10^5
[5]
  Concentration, Bead name: IL-4: 39.2 pg/mL
  MFI, Bead name: IL-4: 3.0
  conc/live cell, Bead name: IL-4: 6.8 pg/10^5
[6]
  Concentration, Bead name: IL-4: 39.4 pg/mL and 45.1 pg/mL and 33.2 pg/mL
  MFI, Bead name: IL-4: 3.0 and 4.0 and 2.0
  conc/live cell, Bead name: IL-4: 6.4 pg/10^5 and 8.7 pg/10^5 and 5.4 pg/10^5
[7]
  Concentration, Bead name: IL-4: 33.2 pg/mL
  MFI, Bead name: IL-4: 2.0
  conc/live cell, Bead name: IL-4: 5.1 pg/10^5
[8]
  Concentration, Bead name: IL-4: 33.2 pg/mL
  MFI, Bead name: IL-4: 2.0
  conc/live cell, Bead name: IL-4: 5.3 pg/10^5 and 4.7 pg/10^5 and 5.4 pg/10^5
[9]
  Concentration, Bead name: IL-4: 23.7 pg/mL
  MFI, Bead name: IL-4: 0.7
  conc/live cell, Bead name: IL-4: 3.6 pg/10^5
[10]
  Concentration, Bead name: IL-4: 26.4 pg/ml (2×) and 18.4 pg/ml
  MFI, Bead name: IL-4: 1.0 (2×) and 0.0
  conc/live cell, Bead name: IL-4: 4.4 pg/10^5 and 4.1 pg/10^5 and 2.4 pg/10^5
[11]
  Concentration, Bead name: IL-4: 14.8 pg/mL
  MFI, Bead name: IL-4: −0.3
  conc/live cell, Bead name: IL-4: 2.5 pg/10^5
[12]
  Concentration, Bead name: IL-4: 18.4 pg/ml (2×) and 7.7 pg/ml
  MFI, Bead name: IL-4: 0.0 (2×) and −1.0
  conc/live cell, Bead name: IL-4: 2.9 pg/10^5 and 3.0 pg/10^5 and 1.5 pg/10^5
[13]
  Concentration, Bead name: IL-4: 27.9 pg/mL
  MFI, Bead name: IL-4: 1.3
  conc/live cell, Bead name: IL-4: 5.6 pg/10^5
[14]
  Concentration, Bead name: IL-4: 22.6 pg/mL and 33.2 pg/mL
  MFI, Bead name: IL-4: 0.5 and 2.0
  conc/live cell, Bead name: IL-4: 4.3 pg/10^5 and 6.9 pg/10^5
[15]
  Concentration, Bead name: IL-4: 29.8 pg/mL
  MFI, Bead name: IL-4: 1.5
  conc/live cell, Bead name: IL-4: 5.9 pg/10^5
[16]
  Concentration, Bead name: IL-4: 26.4 pg/mL and 33.2 pg/mL
  MFI, Bead name: IL-4: 1.0 and 2.0
  conc/live cell, Bead name: IL-4: 6.0 pg/10^5 and 5.7 pg/10^5
[17]
  Concentration, Bead name: IL-4: 18.4 pg/mL
  MFI, Bead name: IL-4: 0.0
  conc/live cell, Bead name: IL-4: 3.3 pg/10^5
[18]
  Concentration, Bead name: IL-4: 18.4 pg/mL
  MFI, Bead name: IL-4: 0.0
  conc/live cell, Bead name: IL-4: 3.3 pg/10^5
[19]
  Concentration, Bead name: IL-4: 47.4 pg/mL
  MFI, Bead name: IL-4: 4.5
  conc/live cell, Bead name: IL-4: 7.6 pg/10^5
[20]
  Concentration, Bead name: IL-4: 55.5 pg/mL and 39.4 pg/mL
  MFI, Bead name: IL-4: 6.0 and 3.0
  conc/live cell, Bead name: IL-4: 8.7 pg/10^5 and 6.5 pg/10^5
[21]
  Concentration, Bead name: IL-4: 13.0 pg/mL
  MFI, Bead name: IL-4: −0.5
  conc/live cell, Bead name: IL-4: 1.9 pg/10^5
[22]
  Concentration, Bead name: IL-4: 7.7 pg/mL and 18.4 pg/mL
  MFI, Bead name: IL-4: −1.0 and 0.0
  conc/live cell, Bead name: IL-4: 1.2 pg/10^5 and 2.6 pg/10^5

## CC(C)C[C@H](NC(=O)CNC(=O)[C@H](CC(C)C)NC(=O)[C@H](CCC(N)=O)NC(=O)CNC(=O)[C@@H]1C[C@@H](O)CN1)C(=O)N[C@@H](C)C(=O)NCC(=O)N1CCC[C@H]1C(=O)N[C@@H](CCCCN)C(=O)O [YDE-011] (H-[Hyp]GQLGLAGPK-OH)
[1]
  Concentration, Bead name: IL-4: 13.2 pg/mL
  MFI, Bead name: IL-4: −0.5
  conc/live cell, Bead name: IL-4: 2.6 pg/10^5
[2]
  Concentration, Bead name: IL-4: 18.4 pg/mL and 7.7 pg/mL and 13.6 pg/mL
  MFI, Bead name: IL-4: 0.0 and −1.0 and −0.5
  conc/live cell, Bead name: IL-4: 4.1 pg/10^5 and 1.3 pg/10^5 and 2.3 pg/10^5
[3]
  Concentration, Bead name: IL-4: 23.7 pg/mL
  MFI, Bead name: IL-4: 0.7
  conc/live cell, Bead name: IL-4: 4.1 pg/10^5
[4]
  Concentration, Bead name: IL-4: 18.4 pg/ml and 26.4 pg/ml (2×)
  MFI, Bead name: IL-4: 0.0 and 1.0 (2×)
  conc/live cell, Bead name: IL-4: 2.9 pg/10^5 and 4.3 pg/10^5 and 5.2 pg/10^5
[5]
  Concentration, Bead name: IL-4: 22.4 pg/mL
  MFI, Bead name: IL-4: −0.3
  conc/live cell, Bead name: IL-4: 2.5 pg/10^5
[6]
  Concentration, Bead name: IL-4: 18.4 pg/mL and 26.4 pg/mL
  MFI, Bead name: IL-4: 0.0 and −2.0 and 1.0
  conc/live cell, Bead name: IL-4: 2.8 pg/10^5 and 0.0 pg/10^5 and 4.6 pg/10^5
[7]
  Concentration, Bead name: IL-4: 18.4 pg/mL
  MFI, Bead name: IL-4: −0.5
  conc/live cell, Bead name: IL-4: 2.4 pg/10^5
[8]
  Concentration, Bead name: IL-4: 18.4 pg/mL
  MFI, Bead name: IL-4: 0.0 (2×) and −1.5
  conc/live cell, Bead name: IL-4: 3.3 pg/10^5 and 0.0 pg/10^5 and 3.8 pg/10^5
[9]
  Concentration, Bead name: IL-4: 16.8 pg/mL
  MFI, Bead name: IL-4: −0.2
  conc/live cell, Bead name: IL-4: 3.2 pg/10^5
[10]
  Concentration, Bead name: IL-4: 18.4 pg/ml (2×) and 13.6 pg/ml
  MFI, Bead name: IL-4: 0.0 (2×) and −0.5
  conc/live cell, Bead name: IL-4: 3.4 pg/10^5 and 2.3 pg/10^5 and 3.9 pg/10^5
[11]
  Concentration, Bead name: IL-4: 7.7 pg/mL
  MFI, Bead name: IL-4: −1.2
  conc/live cell, Bead name: IL-4: 0.8 pg/10^5
[12]
  Concentration, Bead name: IL-4: 7.7 pg/mL
  MFI, Bead name: IL-4: −1.0 (2×) and −1.5
  conc/live cell, Bead name: IL-4: 1.3 pg/10^5 (2×) and 0.0 pg/10^5
